Assay results: PMC5554537 (Frontiers in Pharmacology, 2017)
Like-named read-outs stand apart in the source and are kept apart here.

Key:
[1] = Metabolite profile in plasma, liver and HT29 tumor after i.p. SN30000; type: in vivo, NIH-III mice; conditions: SN30000 186 mg/kg i.p.
Description: Mouse plasma and tissue homogenates, prepared from tissue samples in two volumes of ice-cold PBS using a TissueLyser II (Qiagen Sciences, Germantown, MD, United States) with 30 Hz oscillation frequency for 1 min, were processed by precipitating proteins with 3 vol MeOH and centrifuging (13,000 g, 4°C for 10 min). Supernatants were diluted into 3 vol water and analyzed with an Agilent model 6460 LC-MS/MS with an in-line photodiode array absorbance detector. Chromatographic separation was performed on a Zorbax Eclipse C18 column (100 mm × 3.0 mm, 1.8 μm; Agilent Technologies) at 35°C with a flow rate of 0.6 mL/min, with positive or negative mode electrospray ionization. The mobile phase was a gradient constructed using 80% MeCN/20% water/0.1% formic acid v/v/v (A) and 0.1% formic acid in water (B) from 10% A to 80% A with a total run time of […]. The gradient profile was: 0–4 min, 10% A; 4–11 min linear increase to 60% A; 11–12 min to 80% A; held for 1 min, returned to 10% A over 0.5 min and held for 2 min before the next sample injection. Absorbance spectra were collected from 230 to 600 nm with a reference wavelength of 550 nm. The mass/charge (m/z) ratio was scanned from 100 to 800 with a fragmentor voltage of 120 V. MS^2 with various collision energies was used for further characterization of some metabolites.
Metabolites were investigated in plasma, liver and HT29 tumors following i.p. dosing of female NIH-III mice with SN30000 at 186 mg/kg, which represents its previously determined MTD for this route and mouse strain ([Gu et al., 2014]). Representative chromatograms are shown in Supplementary Figure 1. A total of 19 metabolites (M1–M19) were provisionally identified (Figure 1 and Table 1). Assignments were confirmed by comparison with synthetic standards in the case of the 1-oxide M14 and nor-oxide M13, which have previously been reported as murine metabolites of SN30000 ([Wang et al., 2012]) and for M15 which is known to be the major photodegradation product of SN30000 ([Gu et al., 2014]). In addition, the previously unreported metabolite M18, which is the main plasma metabolite at late times, was isolated from pooled plasma of mice dosed with M14 in sufficient quantity for characterization by NMR (Supplementary Data). This identified M18 as an oxidation product of M14 with an alkanoic acid side-chain (Figure 1), an assignment that was confirmed by synthesis of the authentic compound which was identical by HPLC retention time, absorbance spectrum, elemental analysis, mass spectrum and NMR spectroscopy.

in vivo [2] = conditions: NIH-III, mouse, plasma, ip
Description: SN30000, M14 and M18 dosing solutions were prepared fresh in normal saline, filtered through 0.45 μm Acrodisc filters (Pall Life Sciences, Port Washington, NY, United States), protected from light in amber vials, and used within 3 h. Doses are expressed as mg of free base equivalent for SN30000 and M14, and free acid in the case of M18. […] For evaluation of acute toxicity, mice were observed continuously for 3 h after dosing, and their activity rated on a lethargy score from 0 representing no change in activity to 5 representing animals that were moribund and required culling. For MTD studies, the animals were checked daily for clinical signs of toxicity and body weight change for 2 weeks. In some studies rectal temperature changes after dosing were measured using a BAT-12 digital microprobe thermometer (Physitemp Instruments, Clifton, NJ, United States) at the times specified in the figures. Blood samples were collected from mice at various times by cardiac puncture, seconds after cervical dislocation, into ice-cold tubes containing K2EDTA. These were placed on ice immediately after collection and centrifuged (3,000 g, 3 min) within 10 min to harvest plasma. Plasma and tissues were rapidly frozen in liquid nitrogen before storage at -80°C for subsequent bioanalysis.
(§1) Concentration-time data were analyzed by non-compartmental analysis using Phoenix WinNonlin (ver 6.4, Build 6.4.0768 Pharsight, United States); all AUC values were extrapolated to infinity using the linear trapezoidal rule. A compartmental model for plasma PK after dosing with SN30000 or M14 was fitted using Phoenix NLME v1.3 with random effects on the metabolite volumes of distribution, and temperature effects based on the observed body temperature at the last measurement time. Temperature effects were added or removed until there was no significant change in the log likelihood. Model fits were further assessed by visual inspection of the residuals and predicted PK.

in vivo [3] = conditions: NIH-III nude, mouse, plasma, iv
Description: SN30000, M14 and M18 dosing solutions were prepared fresh in normal saline, filtered through 0.45 μm Acrodisc filters (Pall Life Sciences, Port Washington, NY, United States), protected from light in amber vials, and used within 3 h. Doses are expressed as mg of free base equivalent for SN30000 and M14, and free acid in the case of M18. […] Blood samples were collected from mice at various times by cardiac puncture, seconds after cervical dislocation, into ice-cold tubes containing K2EDTA. These were placed on ice immediately after collection and centrifuged (3,000 g, 3 min) within 10 min to harvest plasma. Plasma and tissues were rapidly frozen in liquid nitrogen before storage at -80°C for subsequent bioanalysis.
(§2) M18 was quantified by absorbance detection with reference to an external standard calibration curve.
Concentration-time data were analyzed by non-compartmental analysis using Phoenix WinNonlin (ver 6.4, Build 6.4.0768 Pharsight, United States); all AUC values were extrapolated to infinity using the linear trapezoidal rule. […] Model fits were further assessed by visual inspection of the residuals and predicted PK.

[4] = Plasma, liver and brain PK after i.p. dosing with M14; type: in vivo; conditions: i.p. M14 135 mg/kg; for half-life: read-out: Terminal T1/2
Description: as §1

[5] = i.p. SN30000 186 mg/kg
Description: as §2
(§3) Concentration-time data were analyzed by non-compartmental analysis using Phoenix WinNonlin (ver 6.4, Build 6.4.0768 Pharsight, United States); all AUC values were extrapolated to infinity using the linear trapezoidal rule.
(§4) SN30000, M14 and M13 were quantified by LC-MS/MS using stable isotope internal standards, while M18 was quantified by absorbance detection using external standard calibration curves.

in vivo [6] = conditions: NIH-III, mouse, ip, 186 mg/kg
Description: as §2, §3, §4

[7] = HT29 tumour, tumour-bearing mice
[8] = liver, HT29 tumour-bearing mice

With c1c2c(cc3nc(CCCN4CCOCC4)nnc13)CCC2 [M13] the “Metabolite/SN30000 peak area, Tumor” value ([1]; HT29 tumor) was 0.11, the “Metabolite/SN30000 peak area, Liver” value ([1]; liver) was 1.50 and the “Metabolite/SN30000 peak area, Plasma” value ([1]; plasma) was 0.08. It also gave an AUC (in vivo [2]; 1.86 mg/kg) of 0.0029 µM·h, a Cmax (in vivo [2]; 1.86 mg/kg) of 0.008 µM and a half-life (in vivo [2]; 1.86 mg/kg) of 19.8 min. It also gave an AUC (in vivo [2]; 18.6 mg/kg) of 0.079 µM·h, a Cmax (in vivo [2]; 18.6 mg/kg) of 0.202 µM and a half-life (in vivo [2]; 18.6 mg/kg) of 39.1 min. It also gave an AUC (in vivo [2]; 78.3 mg/kg) of 2.64 µM·h, a Cmax (in vivo [2]; 78.3 mg/kg) of 3.85 µM and a half-life (in vivo [2]; 78.3 mg/kg) of 31.8 min. The AUC (in vivo [2]; 92.8 mg/kg) was 5.43 µM·h, the Cmax (in vivo [2]; 92.8 mg/kg) was 6.63 µM and the half-life (in vivo [2]; 92.8 mg/kg) was 26.2 min. The AUC (in vivo [2]; 186 mg/kg) was 14.3 µM·h, the half-life (in vivo [2]; 186 mg/kg) was 53.3 min and the AUC (in vivo [3]; 1.86 mg/kg) was 0.0047 µM·h. The half-life (in vivo [3]; 1.86 mg/kg) was 27.7 min, the AUC (in vivo [3]; 18.6 mg/kg) was 0.146 µM·h and the half-life (in vivo [3]; 18.6 mg/kg) was 47.1 min. The AUC (in vivo [3]; 78.3 mg/kg) was 3.34 µM·h, the half-life (in vivo [3]; 78.3 mg/kg) was 38.9 min and the half-life ([4]; NIH-III nude, mouse, ip, brain) was 26 min. It also gave a half-life ([4]; NIH-III nude, mouse, ip, liver) of 32.7 min, a Cmax ([4]; NIH-III nude, mouse, ip, plasma, read-out: Cmax) of 4 ± 0.63 µM and a half-life ([4]; NIH-III nude, mouse, ip, plasma) of 40 min. It also gave an AUC ([4]; brain) of 5.3 µmol·h/kg, a Cmax ([4]; brain) of 11.0 ± 1.6 µmol/kg and an AUC ([4]; liver) of 14.9 µmol·h/kg. The Cmax ([4]; liver) was 34.1 ± 5.4 µmol/kg, the AUC ([4]; plasma) was 1.79 µmol·h/kg and the “Concentrations in brain compared with plasma” value [5] was “higher in brain than plasma”. For the same molecule, the “AUC (extrapolated to infinity)” value [5, 7] was 57.7 µmol·h/kg, the Cmax [5, 7] was 15.5 ± 2.2 µmol/kg and the “AUC (extrapolated to infinity)” value ([5]; brain, non-tumour-bearing mice) was 46.7 µmol·h/kg. For the same molecule, the Cmax ([5]; brain, non-tumour-bearing mice) was 52.8 ± 4.1 µmol/kg, the “AUC (extrapolated to infinity)” value [5, 8] was 158 µmol·h/kg and the Cmax [5, 8] was 155.4 ± 8.4 µmol/kg. The “AUC (extrapolated to infinity)” value ([5]; liver, non-tumour-bearing mice) was 158 µmol·h/kg, the Cmax ([5]; liver, non-tumour-bearing mice) was 178.7 ± 8.1 µmol/kg and the “AUC (extrapolated to infinity)” value ([5]; plasma, HT29 tumour-bearing mice) was 14. 9 µmol. hr/kg. For the same molecule, the “AUC (extrapolated to infinity)” value ([5]; plasma, non-tumour-bearing mice) was 13.0 µmol·h/kg, the half-life (in vivo [6]; HT29 tumour, Terminal T1/2, i.p. SN30000 186 mg/kg, tumour-bearing mice) was 126 min and the half-life (in vivo [6]; all tissues except tumors, Elimination half-life, i.p. SN30000 186 mg/kg) was roughly 30 min. For the same molecule, the half-life (in vivo [6]; brain, Terminal T1/2, i.p. SN30000 186 mg/kg, non-tumour-bearing mice) was 34.9 min, the Tmax (in vivo [6]) was no more than 5 min and the half-life (in vivo [6]; liver, Terminal T1/2, i.p. SN30000 186 mg/kg, HT29 tumour-bearing mice) was 52.4 min. The half-life (in vivo [6]; liver, Terminal T1/2, i.p. SN30000 186 mg/kg, non-tumour-bearing mice) was 42.1 min, the half-life (in vivo [6]; plasma, Terminal T1/2, i.p. SN30000 186 mg/kg, HT29 tumour-bearing mice) was 53.2 min and the half-life (in vivo [6]; plasma, Terminal T1/2, i.p. SN30000 186 mg/kg, non-tumour-bearing mice) was 42.4 min.
